What was measured:
[1] = system: L. infantum amastigotes which overexpress LmSIR2; assay: NAm-induced death of amastigotes overexpressing LmSIR2; format: cell-based; conditions: FIGS. 3A and 3B, growth inhibition and YOPRO-1 positive cells
Description: To further examine the possible correlation between the level of SIR2 expression and the sensitivity/resistance to NAm-induced Leishmania amastigotes death, NAm was added to cultures of mutant L. infantum amastigotes which overexpress LmSIR2 or carrying the empty pTEX plasmid as controls.

[2] = system: THP-1 monocytes; assay: Growth and viability of THP-1 monocytes; format: cell-based; conditions: 3 days
Description: In a first series of experiments, THP-1 monocytes were incubated during 3 days with various concentrations of NAm and the growth and viability of cells were recorded. Up to 10 mM of NAm, no effect on cell growth and viability was observed. In contrast, 20 mM NAm inhibited the proliferation of THP-1 monocyte by about 45% in agreement with the values recorded for other cell types: SupT1 and PBLs cells (6).

[3] = target: T1, LmSIR2 (Leishmania major, UniProt Q25337); assay: NAD-dependent deacetylase activity in Leishmania extracts (pTEX-LmSIR2); format: biochemical; conditions: 5 mM NAm, 200 μM NAD
T1 construct: expressed in transfected cells; host or cells: Leishmania infantum (MHOM/MA/67/ITMAP-263) carrying pTEX-LmSIR2; NP40 lysate
Description: Having established a standard inhibitory assay, the effect of NAm was then examined on the NAD-dependent deacetylase activity contained in Leishmania extracts from mutant parasites carrying extra copies of LmSIR2 gene (pTEX-LmSIR2) or empty plasmid DNA (pTEX) (11).
Briefly, 2 10^5 parasites were collected and washed two times with PBS 0.01M pH 7.2 and incubated in a lysis solution (100 mM Tris-HCl, 150 mM NaCl, 1 mM EDTA, 1% NP40, 5 μM Trichostatin A, pH 8.8), cells were then centrifuged for 20 min at 10 000 rpm at 4° C. Deacetylase activity in the presence or absence of 200 μM NAD was measured. Results are expressed as relative F355/F460 counts=F355/F460 counts in the presence of NAD—F355/F460 counts in the absence of NAD. This allowed to discriminate between fluorescence due to the action of LmSIR2 to fluorescence due to the presence of compounds which could interfere with the test.

[4] = system: L. amazonsensis amastigotes; assay: Growth inhibition of L. amazonsensis amastigotes; format: cell-based
[5] = target: T2, SIRT1 (Homo sapiens, UniProt Q96EB6); assay: NAD-dependent deacetylase activity, cyclex SIR2 assay kit with SIRT1; format: biochemical
T2 construct: purchased MBL, Japan
T2 sequence (Q96EB6 1-747): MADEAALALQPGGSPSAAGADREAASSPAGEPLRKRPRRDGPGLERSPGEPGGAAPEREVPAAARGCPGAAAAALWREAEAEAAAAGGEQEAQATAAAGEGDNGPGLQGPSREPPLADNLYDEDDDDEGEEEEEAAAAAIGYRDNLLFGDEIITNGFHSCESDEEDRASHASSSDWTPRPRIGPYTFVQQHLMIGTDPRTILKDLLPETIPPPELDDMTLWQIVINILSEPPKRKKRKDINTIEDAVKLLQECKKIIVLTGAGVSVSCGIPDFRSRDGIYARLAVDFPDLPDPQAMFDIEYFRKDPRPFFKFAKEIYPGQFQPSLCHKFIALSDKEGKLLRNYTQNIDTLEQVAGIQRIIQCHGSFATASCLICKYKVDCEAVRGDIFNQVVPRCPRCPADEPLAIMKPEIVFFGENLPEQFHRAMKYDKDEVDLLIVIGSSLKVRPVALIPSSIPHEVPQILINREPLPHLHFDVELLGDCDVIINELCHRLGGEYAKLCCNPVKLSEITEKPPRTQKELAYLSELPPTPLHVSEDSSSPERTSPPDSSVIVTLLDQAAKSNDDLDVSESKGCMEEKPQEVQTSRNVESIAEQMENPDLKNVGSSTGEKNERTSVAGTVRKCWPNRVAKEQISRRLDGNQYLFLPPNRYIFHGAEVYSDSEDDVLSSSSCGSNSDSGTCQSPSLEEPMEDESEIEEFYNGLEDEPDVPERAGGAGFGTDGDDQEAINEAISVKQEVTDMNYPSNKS
Description: Therefore, complementary experiments were conducted in order to examine whether NAm could interfere with Leishmania deacetylase activity in vitro. To test this possibility, a commercially available “[…] SIR2 assay kit” and SIRT1 as a standard enzyme (MBL, Japan) were used.

[6] = system: intracellular amastigote; assay: Intracellular amastigote proliferation in THP-1 differentiated macrophages, parasitic index; format: cell-based, Leishmania infantum; conditions: for IC50: Leishmania infantum, THP-1, read-out: IC50, intracellular growth of Leishmania infantum
Description: Thus, THP-1 differentiated macrophages were infected with stationary phase amastigotes at a host cell-parasite ratio of 5:1. After 4 hours, non adherent parasites were removed and nicotinamide was added to the medium at the appropriate concentration. After 3 days of incubation time, cells were fixed with methanol and stained with giemsa. Parasitic index PI (mean percentage of infected macrophages X number of amastigotes per macrophage) was determined. […] At this concentration a reduction of almost 70% of PI was observed.

[7] = patient treated with accelerated radiotherapy for head and Neck cancer; cited from earlier work
[8] = system: L. infantum axenic amastigotes; assay: Growth of axenically grown amastigotes, viable parasites by FACs analysis; format: cell-based
Description: (§1) The growth of Leishmania amastigotes and promastigotes was followed in axenic culture conditions in the presence or absence of NAm.
(§2) A cloned line of L. infantum (MHOM/MA/67/ITMAP-263) was used in all experiments. Each subculture was initiated at 5×10^5 parasites/ml of medium. Axenically grown amastigote forms of L. infantum were maintained at 37° C. with 5% CO2 by weekly subpassages in a cell-free medium called MAA/20 (medium for axenically grown amastigotes) in 25-ml flasks, as previously described (10). Promastigote forms were maintained at 26° C. by weekly subpassage in SDM 79 medium supplemented with 10% foetal calf serum (FCS) and 100 units/ml penicillin and 100 μg/ml streptomycin. Nicotinamide (SIGMA, St Louis) was added at the appropriate concentration and the mean number of viable parasites determined using FACs analysis, as previously described (11).

[9] = system: axenic amastigote; assay: YOPRO-1 positive (apoptotic) axenic amastigotes; format: cell-based, L. infantum
Description: After 24, 48 and 72 hours of incubation aliquots (10^6 parasites) were collected, washed and incubated for 10 min with 10 μM of YO[…], an apoptotic cell marker (Molecular probes). The mean percentage of YO[…] positive cells was determined as previously described (9).

[10] = system: L. infantum promastigotes; assay: Growth of promastigotes in axenic culture, viable parasites by FACs analysis; format: cell-based
Description: as §1, §2

[11] = system: Leishmania parasites; conditions: compared with NAm

T1 sequence (Q25337 whole entry): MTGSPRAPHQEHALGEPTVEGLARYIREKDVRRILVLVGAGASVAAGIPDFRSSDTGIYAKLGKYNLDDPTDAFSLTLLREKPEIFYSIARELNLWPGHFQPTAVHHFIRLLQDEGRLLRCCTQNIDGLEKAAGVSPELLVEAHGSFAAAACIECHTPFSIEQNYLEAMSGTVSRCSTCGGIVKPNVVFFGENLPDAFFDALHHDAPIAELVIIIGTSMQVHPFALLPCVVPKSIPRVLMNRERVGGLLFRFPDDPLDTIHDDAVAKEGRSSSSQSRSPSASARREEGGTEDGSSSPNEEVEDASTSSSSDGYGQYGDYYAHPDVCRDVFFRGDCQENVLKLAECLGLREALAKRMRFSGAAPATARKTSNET

SMILES | resistance to NAm-induced death from extra copies of LmSIR2 [1] | inhibition at 20000 µM ([2]; Homo sapiens, THP-1, 72 h, 20 mM NAm, read-out: inhibition of proliferation of THP-1 monocyte) [%] | effect on cell growth and viability of THP-1 monocytes ([2]; up to 10 mM NAm) | NAD dependent deacetylase activity in parasites overexpressing LmSIR2 [3] | growth inhibitory activity on L. amazonsensis amastigotes [4] | effect on enzymatic (deacetylase) activity of SIRT1 ([5]; 5 mM) | effect on enzymatic (deacetylase) activity of SIRT1 ([5]; 20 mM) | inhibition of intracellular amastigote proliferation ([6]; 2.5 mM NAm, vs control non treated cultures, p<0.05) | reduction of parasitic index (PI) ([6]; 10 mM NAm, 3 days, THP-1 differentiated macrophages (maximal activity)) [%] | IC50 [6] [mM] | plasmatic concentration achievable [7] [mM] | capacity of axenic amastigotes to proliferate ([8]; 20 mM NAm) | proliferation of amastigotes ([8]; FIG. 1B, 10 mM or 20 mM NAm) | leishmanicidal effect, YOPRO-1 positive cells ([9]; 100 mM NAm, after 3 days of culture (FIG. 1C)) | leishmanicidal activity, occurrence of YOPRO-1 positive cells ([9]; concentrations higher than 25 mM, 24, 48 and 72 hours) | growth of promastigotes ([10]; 20 mM NAm) | proliferation of promastigotes ([10]; FIG. 1A, 10 mM or 20 mM NAm) | growth inhibitory activity towards Leishmania parasites [11]
NC(=O)c1cccnc1 [NAm, nicotinamide] | did not confer significant resistance | ~45 | no effect | significantly inhibited | sensitive | almost completely abrogated | almost completely abrogated | significantly inhibit | ~70 | < 2.5 | 0.7 to 2.3 | virtually completely abrogated | strongly inhibited | Maximal effect | strong dose-dependent leishmanicidal activity | a delay in the growth | strongly inhibited | 
O=C(O)c1cccnc1 [NicotAc, nicotinic acid] |  |  |  |  |  | no significant effect |  |  |  | < 2.5 |  |  |  |  |  |  |  | exerted a growth inhibitory activity towards Leishmania parasites, although at higher concentrations

From patent publication US20080039430A1, “Pharmaceutical Compositions For The Treatment Of Leishmaniasis” (priority 2004, published 2008)
